Results as given in patent publication US10624897B2, “Chlorobenzene substituted azaaryl compounds” (TAIPEI MEDICAL UNIVERSITY, priority 2015, dated 2020).

Key:
Experiment in all cases: Kinase binding assay (Kd)
ACVR1B = target: T1, ACVR1B (Homo sapiens, UniProt P36896)
T1 construct: made in house; host or cells: E. coli BL21-derived host (T7 phage) or HEK-293
Procedure: (§1) Kinase assays. For most assays, kinase-tagged T7 phage strains were prepared in an E. coli host derived from the BL21 strain. E. coli were grown to log-phase and infected with T7 phage and incubated with shaking at 32° C. until lysis. The lysates were centrifuged and filtered to remove cell debris. The remaining kinases were produced in HEK-293 cells and subsequently tagged with DNA for qPCR detection. […] The liganded beads were blocked with excess biotin and washed with blocking buffer (SeaBlock (Pierce), 1% BSA, 0.05% Tween 20, 1 mM DTT) to remove unbound ligand and to reduce non-specific binding. […] All reactions were performed in polystyrene 96-well plates in a final volume of 0.135 ml. […] The kinase concentration in the eluates was measured by qPCR.
(§2) An 11-point 3-fold serial dilution of each test compound was prepared in 100% DMSO at 100× final test concentration and subsequently diluted to 1× in the assay (final DMSO concentration=1%). Most Kds were determined using a compound top concentration=30,000 nM.
(§3) Binding constants (Kds) were calculated with a standard dose-response curve using the Hill equation: […]
(§4) The Hill Slope was set to −1. Curves were fitted using a non-linear least square fit with the Levenberg-Marquardt algorithm.

ADCK3 = target: T2, ADCK3 (Homo sapiens, UniProt Q8NI60)
T2 construct: made in house; host or cells: E. coli BL21-derived host (T7 phage) or HEK-293
Procedure: as §1, §2, §3, §4

AKT2 = target: T3, AKT2 (Homo sapiens, UniProt P31751)
T3 construct: made in house; host or cells: E. coli BL21-derived host (T7 phage) or HEK-293
Procedure: as §1, §2, §3, §4

AURKB = target: T4, AURKB (Homo sapiens, UniProt Q96GD4)
T4 construct: made in house; host or cells: E. coli BL21-derived host (T7 phage) or HEK-293
Procedure: as §1, §2, §3, §4

AXL = target: T5, AXL (Homo sapiens, UniProt P30530)
T5 construct: made in house; host or cells: E. coli BL21-derived host (T7 phage) or HEK-293
Procedure: as §1, §2, §3, §4

CSF1R = target: T6, CSF1R (Homo sapiens, UniProt P07333)
T6 construct: made in house; host or cells: E. coli BL21-derived host (T7 phage) or HEK-293
Procedure: as §1, §2, §3, §4

DCAMKL1 = target: T7, DCAMKL1 (Homo sapiens, UniProt O15075)
T7 construct: made in house; host or cells: E. coli BL21-derived host (T7 phage) or HEK-293
Procedure: as §1, §2, §3, §4

EGFR = target: T8, EGFR (Homo sapiens, UniProt P00533)
T8 construct: made in house; host or cells: E. coli BL21-derived host (T7 phage) or HEK-293
Procedure: as §1, §2, §3, §4

EPHA2 = target: T9, EPHA2 (Homo sapiens, UniProt P29317)
T9 construct: made in house; host or cells: E. coli BL21-derived host (T7 phage) for most kinases, HEK-293 for the rest
Procedure: as §1, §2, §3, §4

ERBB4 = target: T10, ERBB4 (Homo sapiens, UniProt Q15303)
T10 construct: made in house; host or cells: E. coli BL21-derived host (T7 phage) for most kinases, HEK-293 for the rest
Procedure: as §1, §2, §3, §4

ERK1 = target: T11, ERK1 (Homo sapiens, UniProt P27361)
T11 construct: made in house; host or cells: E. coli BL21-derived host (T7 phage) for most kinases, HEK-293 for the rest
Procedure: as §1, §2, §3, §4

FGFR1 = target: T12, FGFR1 (Homo sapiens, UniProt P11362)
T12 construct: made in house; host or cells: E. coli BL21-derived host (T7 phage) or HEK-293
Procedure: as §1, §2, §3, §4

FGFR2 = target: T13, FGFR2 (Homo sapiens, UniProt P21802)
T13 construct: made in house; host or cells: E. coli BL21-derived host (T7 phage) or HEK-293
Procedure: as §1, §2, §3, §4

FGFR4 = target: T14, FGFR4 (Homo sapiens, UniProt P22455)
T14 construct: made in house; host or cells: E. coli BL21-derived host (T7 phage) or HEK-293
Procedure: as §1, §2, §3, §4

FLT3 = target: T15, FLT3 (Homo sapiens, UniProt P36888)
T15 construct: made in house; host or cells: E. coli BL21-derived host (T7 phage) or HEK-293
Procedure: as §1, §2, §3, §4

GSK3B = target: T16, GSK3B (Homo sapiens, UniProt P49841)
T16 construct: made in house; host or cells: E. coli BL21-derived host (T7 phage) for most kinases, HEK-293 for the rest
Procedure: as §1, §2, §3, §4

IGF1R = target: T17, IGF1R (Homo sapiens, UniProt P08069)
T17 construct: made in house; host or cells: E. coli BL21-derived host (T7 phage) for most kinases, HEK-293 for the rest
Procedure: as §1, §2, §3, §4

IKK-alpha = target: T18, IKK-alpha (Homo sapiens, UniProt O15111)
T18 construct: made in house; host or cells: E. coli BL21-derived host (T7 phage) for most kinases, HEK-293 for the rest
Procedure: as §1, §2, §3, §4

IKK-beta = target: T19, IKK-beta (Homo sapiens, UniProt O14920)
T19 construct: made in house; host or cells: E. coli BL21-derived host (T7 phage) for most kinases, HEK-293 for the rest
Procedure: as §1, §2, §3, §4

LKB1 = target: T20, LKB1 (Homo sapiens, UniProt Q15831)
T20 construct: made in house; host or cells: E. coli BL21-derived host (T7 phage) for most kinases, HEK-293 for the rest
Procedure: as §1, §2, §3, §4

MAPKAPK2 = target: T21, MAPKAPK2 (Homo sapiens, UniProt P49137)
T21 construct: made in house; host or cells: E. coli BL21-derived host (T7 phage) for most kinases, HEK-293 for the rest
Procedure: as §1, §2, §3, §4

MLK1 = target: T22, MLK1 (Homo sapiens, UniProt P80192)
T22 construct: made in house; host or cells: E. coli BL21-derived host (T7 phage) for most kinases, HEK-293 for the rest
Procedure: as §1, §2, §3, §4

PDGFRB = target: T23, PDGFRB (Homo sapiens, UniProt P09619)
T23 construct: made in house; host or cells: E. coli BL21-derived host (T7 phage) or HEK-293
Procedure: as §1, §2, §3, §4

PDPK1 = target: T24, PDPK1 (Homo sapiens, UniProt O15530)
T24 construct: made in house; host or cells: E. coli BL21-derived host (T7 phage) for most kinases, HEK-293 for the rest
Procedure: as §1, §2, §3, §4

PIK3CG = target: T25, PIK3CG (Homo sapiens, UniProt P48736)
T25 construct: made in house; host or cells: E. coli BL21-derived host (T7 phage) for most kinases, HEK-293 for the rest
Procedure: as §1, §2, §3, §4

PIM1 = target: T26, PIM1 (Homo sapiens, UniProt P11309)
T26 construct: made in house; host or cells: E. coli BL21-derived host (T7 phage) for most kinases, HEK-293 for the rest
Procedure: as §1, §2, §3, §4

PIM2 = target: T27, PIM2 (Homo sapiens, UniProt Q9P1W9)
T27 construct: made in house; host or cells: E. coli BL21-derived host (T7 phage) for most kinases, HEK-293 for the rest
Procedure: as §1, §2, §3, §4

PIM3 = target: T28, PIM3 (Homo sapiens, UniProt Q86V86)
T28 construct: made in house; host or cells: E. coli BL21-derived host (T7 phage) or HEK-293
Procedure: as §1, §2, §3, §4

PLK1 = target: T29, PLK1 (Homo sapiens, UniProt P53350)
T29 construct: made in house; host or cells: E. coli BL21-derived host (T7 phage) or HEK-293
Procedure: as §1, §2, §3, §4

PLK3 = target: T30, PLK3 (Homo sapiens, UniProt Q9H4B4)
T30 construct: made in house; host or cells: E. coli BL21-derived host (T7 phage) or HEK-293
Procedure: as §1, §2, §3, §4

RAF1 = target: T31, RAF1 (Homo sapiens, UniProt P04049)
T31 construct: made in house; host or cells: E. coli BL21-derived host (T7 phage) or HEK-293
Procedure: as §1, §2, §3, §4

RET = target: T32, RET (Homo sapiens, UniProt P07949)
T32 construct: made in house; host or cells: E. coli BL21-derived host (T7 phage) or HEK-293
Procedure: as §1, §2, §3, §4

ROCK2 = target: T33, ROCK2 (Homo sapiens, UniProt O75116)
T33 construct: made in house; host or cells: E. coli BL21-derived host (T7 phage) or HEK-293
Procedure: as §1, §2, §3, §4

SRPK3 = target: T34, SRPK3 (Homo sapiens, UniProt Q9UPE1)
T34 construct: made in house; host or cells: E. coli BL21-derived host (T7 phage) or HEK-293
Procedure: as §1, §2, §3, §4

TGFBR1 = target: T35, TGFBR1 (Homo sapiens, UniProt P36897)
T35 construct: made in house; host or cells: E. coli BL21-derived host (T7 phage) or HEK-293
Procedure: as §1, §2, §3, §4

TSSK1B = target: T36, TSSK1B (Homo sapiens, UniProt Q9BXA7)
T36 construct: made in house; host or cells: E. coli BL21-derived host (T7 phage) or HEK-293
Procedure: as §1, §2, §3, §4

TYK2 = target: T37, TYK2 (Homo sapiens, UniProt P29597)
T37 construct: made in house; host or cells: E. coli BL21-derived host (T7 phage) or HEK-293
Procedure: as §1, §2, §3, §4

T25 sequence (P48736 whole entry): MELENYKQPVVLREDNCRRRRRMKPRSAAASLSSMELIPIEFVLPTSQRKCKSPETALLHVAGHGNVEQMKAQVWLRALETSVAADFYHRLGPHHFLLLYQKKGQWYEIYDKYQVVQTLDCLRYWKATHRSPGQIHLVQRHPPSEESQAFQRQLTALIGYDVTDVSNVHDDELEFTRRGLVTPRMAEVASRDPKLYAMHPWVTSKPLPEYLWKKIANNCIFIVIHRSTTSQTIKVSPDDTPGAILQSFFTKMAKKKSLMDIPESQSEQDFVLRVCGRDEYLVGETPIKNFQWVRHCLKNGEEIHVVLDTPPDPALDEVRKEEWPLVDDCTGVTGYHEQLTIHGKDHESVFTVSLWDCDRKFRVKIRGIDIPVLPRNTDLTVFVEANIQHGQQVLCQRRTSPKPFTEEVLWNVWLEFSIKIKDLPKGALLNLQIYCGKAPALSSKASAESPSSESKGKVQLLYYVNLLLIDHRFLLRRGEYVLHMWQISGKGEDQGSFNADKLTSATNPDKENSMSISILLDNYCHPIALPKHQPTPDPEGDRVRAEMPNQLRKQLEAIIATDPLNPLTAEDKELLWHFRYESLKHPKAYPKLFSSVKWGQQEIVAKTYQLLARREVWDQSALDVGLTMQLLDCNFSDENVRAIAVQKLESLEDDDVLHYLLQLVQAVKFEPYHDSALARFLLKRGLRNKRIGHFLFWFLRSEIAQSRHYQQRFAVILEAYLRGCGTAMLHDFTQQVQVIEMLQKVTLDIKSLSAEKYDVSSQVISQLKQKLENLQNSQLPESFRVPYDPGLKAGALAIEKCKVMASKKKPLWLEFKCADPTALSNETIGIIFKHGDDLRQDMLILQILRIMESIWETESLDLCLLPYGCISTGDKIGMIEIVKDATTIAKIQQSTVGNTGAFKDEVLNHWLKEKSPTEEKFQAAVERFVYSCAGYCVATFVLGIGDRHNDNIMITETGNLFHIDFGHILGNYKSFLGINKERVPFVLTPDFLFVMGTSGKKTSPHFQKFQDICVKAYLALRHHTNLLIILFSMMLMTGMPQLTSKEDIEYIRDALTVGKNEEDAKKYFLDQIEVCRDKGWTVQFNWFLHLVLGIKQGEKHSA
T20 sequence (Q15831 whole entry): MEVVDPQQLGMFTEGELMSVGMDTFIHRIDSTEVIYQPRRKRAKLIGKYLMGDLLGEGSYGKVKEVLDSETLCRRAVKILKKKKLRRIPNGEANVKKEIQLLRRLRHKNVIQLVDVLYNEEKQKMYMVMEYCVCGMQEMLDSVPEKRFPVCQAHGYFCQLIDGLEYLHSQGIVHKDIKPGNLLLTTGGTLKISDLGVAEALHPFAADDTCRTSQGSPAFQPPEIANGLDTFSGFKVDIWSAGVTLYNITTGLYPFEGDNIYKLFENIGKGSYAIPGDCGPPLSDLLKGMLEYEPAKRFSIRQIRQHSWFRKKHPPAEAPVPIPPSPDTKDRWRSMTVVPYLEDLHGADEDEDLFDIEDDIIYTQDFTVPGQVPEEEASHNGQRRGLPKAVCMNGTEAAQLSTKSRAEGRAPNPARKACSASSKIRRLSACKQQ
T35 sequence (P36897 34-503): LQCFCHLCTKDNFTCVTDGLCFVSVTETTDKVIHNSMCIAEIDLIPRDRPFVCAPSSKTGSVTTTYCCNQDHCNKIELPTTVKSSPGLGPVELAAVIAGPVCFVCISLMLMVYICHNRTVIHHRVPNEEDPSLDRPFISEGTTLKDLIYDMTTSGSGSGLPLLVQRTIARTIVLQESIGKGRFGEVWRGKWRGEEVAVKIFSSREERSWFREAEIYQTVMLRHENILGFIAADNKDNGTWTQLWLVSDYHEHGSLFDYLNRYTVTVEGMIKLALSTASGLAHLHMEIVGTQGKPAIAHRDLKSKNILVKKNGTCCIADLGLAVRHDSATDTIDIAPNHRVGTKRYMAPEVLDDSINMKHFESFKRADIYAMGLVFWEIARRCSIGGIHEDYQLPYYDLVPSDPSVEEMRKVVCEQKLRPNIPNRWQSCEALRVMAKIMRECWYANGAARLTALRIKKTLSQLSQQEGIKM
T19 sequence (O14920 whole entry): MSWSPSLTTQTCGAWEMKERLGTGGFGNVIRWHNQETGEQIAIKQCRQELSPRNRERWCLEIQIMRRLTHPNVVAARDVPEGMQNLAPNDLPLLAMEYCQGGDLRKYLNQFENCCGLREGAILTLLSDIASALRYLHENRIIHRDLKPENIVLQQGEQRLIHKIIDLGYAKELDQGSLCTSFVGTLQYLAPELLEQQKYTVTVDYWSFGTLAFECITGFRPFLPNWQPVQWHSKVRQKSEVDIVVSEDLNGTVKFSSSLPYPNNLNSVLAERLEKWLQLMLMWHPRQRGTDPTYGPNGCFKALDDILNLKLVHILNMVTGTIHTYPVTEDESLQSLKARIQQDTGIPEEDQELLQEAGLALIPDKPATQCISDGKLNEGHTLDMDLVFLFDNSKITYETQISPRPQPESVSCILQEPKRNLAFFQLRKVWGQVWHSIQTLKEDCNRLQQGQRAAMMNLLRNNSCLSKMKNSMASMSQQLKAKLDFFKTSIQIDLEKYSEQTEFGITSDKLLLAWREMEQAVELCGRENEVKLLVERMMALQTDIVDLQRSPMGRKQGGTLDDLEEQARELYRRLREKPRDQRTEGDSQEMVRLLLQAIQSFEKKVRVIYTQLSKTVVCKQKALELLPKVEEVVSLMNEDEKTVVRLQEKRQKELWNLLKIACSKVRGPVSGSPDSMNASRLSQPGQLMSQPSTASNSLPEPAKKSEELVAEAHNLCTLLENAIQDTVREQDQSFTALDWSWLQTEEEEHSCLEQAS
T24 sequence (O15530 whole entry): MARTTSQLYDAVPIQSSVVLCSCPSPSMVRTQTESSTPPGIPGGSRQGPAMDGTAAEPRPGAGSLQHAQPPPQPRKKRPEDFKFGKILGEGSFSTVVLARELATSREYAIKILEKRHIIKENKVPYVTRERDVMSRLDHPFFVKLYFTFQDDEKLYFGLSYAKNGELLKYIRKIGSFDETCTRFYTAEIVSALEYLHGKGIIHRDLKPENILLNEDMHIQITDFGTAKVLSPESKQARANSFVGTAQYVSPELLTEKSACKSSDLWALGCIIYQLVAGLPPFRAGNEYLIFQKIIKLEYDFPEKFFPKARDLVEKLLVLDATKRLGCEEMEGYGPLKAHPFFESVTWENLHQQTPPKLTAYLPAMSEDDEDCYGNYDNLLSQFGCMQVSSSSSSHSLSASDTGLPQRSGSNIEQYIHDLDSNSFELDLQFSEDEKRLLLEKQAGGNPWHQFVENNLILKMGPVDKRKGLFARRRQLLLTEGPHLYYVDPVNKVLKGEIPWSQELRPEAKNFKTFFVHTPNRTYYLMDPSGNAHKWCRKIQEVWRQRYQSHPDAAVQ
T10 sequence (Q15303 26-1308): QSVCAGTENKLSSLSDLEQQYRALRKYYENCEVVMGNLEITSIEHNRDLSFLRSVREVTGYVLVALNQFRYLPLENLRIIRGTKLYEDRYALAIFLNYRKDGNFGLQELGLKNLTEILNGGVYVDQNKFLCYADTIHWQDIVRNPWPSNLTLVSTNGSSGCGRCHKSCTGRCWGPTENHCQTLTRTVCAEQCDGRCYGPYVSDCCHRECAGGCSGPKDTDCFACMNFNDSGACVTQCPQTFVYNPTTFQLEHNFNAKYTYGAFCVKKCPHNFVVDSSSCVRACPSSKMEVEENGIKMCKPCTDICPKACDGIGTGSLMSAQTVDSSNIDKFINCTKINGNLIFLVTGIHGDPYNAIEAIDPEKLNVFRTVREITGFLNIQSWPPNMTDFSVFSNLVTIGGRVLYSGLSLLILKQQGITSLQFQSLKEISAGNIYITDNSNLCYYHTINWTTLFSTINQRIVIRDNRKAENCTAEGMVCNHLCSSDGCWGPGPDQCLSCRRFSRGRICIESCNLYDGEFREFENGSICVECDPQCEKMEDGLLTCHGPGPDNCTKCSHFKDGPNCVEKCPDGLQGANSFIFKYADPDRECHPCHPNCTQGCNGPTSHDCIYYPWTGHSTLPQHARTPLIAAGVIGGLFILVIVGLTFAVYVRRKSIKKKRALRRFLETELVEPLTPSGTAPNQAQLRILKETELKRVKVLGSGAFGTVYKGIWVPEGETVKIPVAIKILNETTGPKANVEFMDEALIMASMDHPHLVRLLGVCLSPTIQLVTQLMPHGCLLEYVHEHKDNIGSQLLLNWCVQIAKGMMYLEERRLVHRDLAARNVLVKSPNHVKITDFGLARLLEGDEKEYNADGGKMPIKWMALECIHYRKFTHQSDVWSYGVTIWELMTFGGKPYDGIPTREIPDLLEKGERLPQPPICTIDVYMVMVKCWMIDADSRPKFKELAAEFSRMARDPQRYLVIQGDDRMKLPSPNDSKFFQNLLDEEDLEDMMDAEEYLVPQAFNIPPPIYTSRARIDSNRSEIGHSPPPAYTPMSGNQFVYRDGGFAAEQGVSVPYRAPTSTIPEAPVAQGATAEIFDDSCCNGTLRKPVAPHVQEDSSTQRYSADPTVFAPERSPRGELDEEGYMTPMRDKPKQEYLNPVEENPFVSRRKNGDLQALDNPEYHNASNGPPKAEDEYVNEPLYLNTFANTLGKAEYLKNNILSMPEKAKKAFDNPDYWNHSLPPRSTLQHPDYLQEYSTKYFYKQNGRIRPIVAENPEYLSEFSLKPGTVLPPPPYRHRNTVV
T11 sequence (P27361 whole entry): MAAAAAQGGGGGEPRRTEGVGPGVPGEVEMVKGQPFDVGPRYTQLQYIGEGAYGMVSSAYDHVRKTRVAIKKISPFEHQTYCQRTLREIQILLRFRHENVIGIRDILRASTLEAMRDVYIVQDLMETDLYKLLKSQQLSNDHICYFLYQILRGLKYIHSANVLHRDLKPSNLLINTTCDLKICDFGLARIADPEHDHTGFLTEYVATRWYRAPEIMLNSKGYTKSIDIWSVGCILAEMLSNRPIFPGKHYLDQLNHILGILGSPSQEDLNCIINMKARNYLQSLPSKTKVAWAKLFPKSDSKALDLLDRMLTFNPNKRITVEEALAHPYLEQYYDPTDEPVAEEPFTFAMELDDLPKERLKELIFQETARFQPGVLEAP

CCN1CCN(c2ccc(Nc3ncnc(N(C)C(=O)Nc4c(Cl)c(OC)c(Cl)c(OC)c4Cl)n3)cc2)CC1 [MPT0L145, 1-(4-((4-(4-ethylpiperazin-1-yl)phenyl)amino)-1,3,5-triazin-2-yl)-1-methyl-3-(2,4,6-trichloro-3,5-dimethoxyphenyl)urea]
Kd (ACVR1B): > 10 µM
Kd (ADCK3): > 10 µM
Kd (AKT2): > 10 µM
Kd (AURKB): > 10 µM
Kd (AXL): > 10 µM
Kd (CSF1R): 340 nM
Kd (DCAMKL1): > 10 µM
Kd (EGFR): > 10 µM
Kd (EPHA2): > 10 µM
Kd (ERBB4): > 10 µM
Kd (ERK1): > 10 µM
Kd (FGFR1): 130 nM
Kd (FGFR2): 670 nM
Kd (FGFR4): 7.5 µM
Kd (FLT3): 1300 nM
Kd (GSK3B): > 10 µM
Kd (IGF1R): > 10 µM
Kd (IKK-alpha): > 10 µM
Kd (IKK-beta): > 10 µM
Kd (LKB1): > 10 µM
Kd (MAPKAPK2): > 10 µM
Kd (MLK1): > 10 µM
Kd (PDGFRB): 680 nM
Kd (PDPK1): > 10 µM
Kd (PIK3CG): > 10 µM
Kd (PIM1): > 10 µM
Kd (PIM2): > 10 µM
Kd (PIM3): > 10 µM
Kd (PLK1): > 10 µM
Kd (PLK3): > 10 µM
Kd (RAF1): > 10 µM
Kd (RET): > 10 µM
Kd (ROCK2): > 10 µM
Kd (SRPK3): > 10 µM
Kd (TGFBR1): > 10 µM
Kd (TSSK1B): > 10 µM
Kd (TYK2): 660 nM
